Experimental data as given in article PMC3588188, “Interactions between Human Liver Fatty Acid Binding Protein and Peroxisome Proliferator Activated Receptor Selective Drugs” (PPAR Research, 2013).
Like-named read-outs stand apart in the source and are kept apart here.

What was measured:
human L-FABP [1] = molecular target: T1, human L-FABP (Homo sapiens, UniProt P07148); test: ANS fluorescence displacement assay with L-FABP
T1 sequence (P07148 1-127): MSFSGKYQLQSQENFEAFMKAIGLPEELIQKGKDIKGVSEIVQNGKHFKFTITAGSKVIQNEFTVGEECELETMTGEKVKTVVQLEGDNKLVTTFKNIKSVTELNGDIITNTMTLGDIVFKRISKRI

human L-FABP [2] = molecular target: T1, human L-FABP; test: Fluorescent binding cavity probe binding to L-FABP
PPARαLBD = molecular target: T2, PPARαLBD (Homo sapiens, UniProt Q07869); test: PPARαLBD protection from limited proteolysis (western blot); conditions: PPARαLBD 30 μM, drug 0, 1, 5 μM, trypsin 30 min at 20°C
T2 construct: LBD of human PPARα (aa 196–468); [His]6 (N); made in house; host or cells: E. coli BL21 Codon Plus (DE3)-RIL (plasmid from Krister Bamberg, Astra-Zeneca)
T2 sequence (Q07869 196-468): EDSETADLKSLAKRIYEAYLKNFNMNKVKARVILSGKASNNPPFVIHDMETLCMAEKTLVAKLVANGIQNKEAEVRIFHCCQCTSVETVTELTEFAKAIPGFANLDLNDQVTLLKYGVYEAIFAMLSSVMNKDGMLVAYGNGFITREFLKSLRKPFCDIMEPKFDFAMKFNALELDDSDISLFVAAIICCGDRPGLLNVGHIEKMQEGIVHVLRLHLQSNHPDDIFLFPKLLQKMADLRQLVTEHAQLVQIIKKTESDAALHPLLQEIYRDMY
Text: […] […] The reaction was quenched by the addition of PMSF and one volume of SDS-PAGE sample buffer as detailed above. Samples were resolved by 15% resolving SDS-PAGE polyacrylamide gels then transferred to a PVDF membrane and probed with anti-human PPARα antibody (mapping to C-terminal aa 420–468 of the PPARαLBD; cat. no. sc1982 Santa-Cruz Biotechnology, Santa Cruz, CA, USA) by western blotting.

human L-FABP [3] = molecular target: T1, human L-FABP; test: cis-parinaric acid fluorescence displacement assay with L-FABP; conditions: for displacement of cis-parinaric acid fluorescence from L-FABP: extent of probe displacement by drug titration
human L-FABP [4] = molecular target: T1, human L-FABP; test: Differential scanning calorimetry of L-FABP; parameters: [His]6 (N); made in house; host or cells: E. coli BL21 Codon Plus (DE3)-RIL; conditions: holo-drug L-FABP; apo L-FABP Tm = 80.1; scan rate 0.5°C/min
Procedure: DSC measurements were performed on N-DSC II calorimeter (Calorimetry Sciences Corporation, UT, USA) at a heating rate of 0.5°C/min. For preparation of 250 μM protein sample solutions, L-FABP was extensively buffer exchanged into buffer E (20 mM Tris-HCl pH 8.0) by ultrafiltration using Amicon Ultra 3 K centrifugal concentrators and degassed prior to filling the calorimeter cells. The filtrate from the sample preparation was used as a reference buffer for the DSC measurements. The thermal transition mid-point temperatures (T m) were calculated using CpCalc software (Calorimetry Sciences Corporation, UT, USA).

human L-FABP [5] = molecular target: T1, human L-FABP; test: Limited proteolysis of L-FABP with trypsin; parameters: [His]6 (N); made in house; host or cells: E. coli BL21 Codon Plus (DE3)-RIL; conditions: drug 0-5 μM, L-FABP 50 μM, 1 hr at 20°C
Procedure: The limited proteolysis of L-FABP (50 μM) with sequencing grade trypsin was carried out in buffer D (20 mM Tris-HCl, pH 8.0; 50 mM NaCl; […]. Apo- or holo-drug (0, 0.1, 0.4, 1.0, 5 μM final drug concentration) protein samples were equilibrated with the drug at 20°C for 15 min before protease was added. Digestion reactions were stopped by the addition of 5 μL of 50 mM phenylmethanesulfonyl fluoride (PMSF) followed by one volume of SDS-PAGE sample buffer (12.5% 0.5 M Tris-HCl pH 6.8; 0.005% bromophenol blue; 10% SDS; 10% glycerol; 2% β-mercaptoethanol) and heated for 2 min at 100°C. Samples were resolved on 4% stacking, 20% resolving polyacrylamide gels at 4°C at a constant voltage of 80 V, using the Laemmli buffer system. Gels were stained with Coomassie Blue G-250 and destained with 50% methanol/10% acetic acid (v/v) solution. Gels were dried between cellulose sheets and scanned at 1200 dpi. Protein bands were quantified densitometrically using LabImage 1D gel analysis software V3.4 (Kapelan GmbH, http://www.kapelan-bioimaging.com/).

[6] = molecular target: T3, human PPARα LBD (aa 196–468) (Homo sapiens, UniProt Q07869); test: cis-parinaric acid fluorescence displacement assay with PPARα LBD; conditions: cis-parinaric acid (2 μM) displacement, LBD 1 μM; nd = no binding detected; read-out: Ki, PPARαLBD
T3 construct: LBD of human PPARα (aa 196–468); [His]6 (N); made in house; host or cells: E. coli BL21 Codon Plus (DE3)-RIL (plasmid from Krister Bamberg, Astra-Zeneca)
T3 sequence (Q07869 196-468): T2 sequence (Q07869 196-468)
Procedure: (§1) Proteins were resolved using a step gradient of 0–300 mM imidazole in buffer A (50 mM Tris-HCl, pH 8.0; 500 mM NaCl; 0.5 mM ethylenediaminetetraacetic acid (EDTA); 1 mM dithiothreitol (DTT); 5% (v/v) glycerol) at a flow rate of 5 mL/min (4 column volumes (CVs) washout unbound sample; 0%–30% imidazole over 5 CVs; hold 30% for 2 CVs; 30%–100% imidazole over 5 CVs; hold 100% for 3 CVs).

[7] = molecular target: T4, human PPARγ LBD (aa 193–475) (Homo sapiens, UniProt P37231); test: cis-parinaric acid fluorescence displacement assay with PPARγ LBD; type: binding
T4 construct: human PPARγ (aa 193–475); [His]6 (N); made in house; host or cells: E. coli BL21 Codon Plus (DE3)-RIL (plasmid from Krister Bamberg, Astra-Zeneca)
T4 sequence (P37231 193-475 isoform P37231-2): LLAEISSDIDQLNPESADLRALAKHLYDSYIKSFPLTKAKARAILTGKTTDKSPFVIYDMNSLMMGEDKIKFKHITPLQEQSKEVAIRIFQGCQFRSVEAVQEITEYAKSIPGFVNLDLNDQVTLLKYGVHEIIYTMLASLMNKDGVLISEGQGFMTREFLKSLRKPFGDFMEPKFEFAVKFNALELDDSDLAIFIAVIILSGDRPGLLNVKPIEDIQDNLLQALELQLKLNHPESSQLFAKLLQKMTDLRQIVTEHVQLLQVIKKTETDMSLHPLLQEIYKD
Procedure: as §1

[8] = molecular target: T5, human PPARδ LBD (aa 171–441) (Homo sapiens, UniProt Q03181); test: cis-parinaric acid fluorescence displacement assay with PPARδ LBD; conditions: cis-parinaric acid (2 μM) displacement, LBD 1 μM; nd = no binding detected; read-out: Ki, PPARδLBD
T5 construct: human PPARδ (aa 171–441); [His]6 (N); made in house; host or cells: E. coli BL21 Codon Plus (DE3)-RIL (plasmid from William Hunter, University of Dundee)
T5 sequence (Q03181 171-441): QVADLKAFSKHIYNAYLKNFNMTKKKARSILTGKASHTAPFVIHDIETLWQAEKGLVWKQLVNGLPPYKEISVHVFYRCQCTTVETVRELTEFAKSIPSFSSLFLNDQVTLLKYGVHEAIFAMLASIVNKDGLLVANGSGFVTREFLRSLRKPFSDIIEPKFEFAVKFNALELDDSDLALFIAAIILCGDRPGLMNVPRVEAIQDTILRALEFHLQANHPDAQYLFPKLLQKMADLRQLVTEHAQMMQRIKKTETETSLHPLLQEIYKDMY
Procedure: as §1

[9] = cis-parinaric acid (2 μM) displacement, LBD 1 μM, nd = no binding detected, read-out: Ki, PPARγLBD

Row | SMILES | Ki (human L-FABP [1]) | Ki [6] | Ki [8] | further results
1 | CN(CCOc1ccc(CC2SC(=O)NC2=O)cc1)c1ccccn1 (centres unmarked) [Rosiglitazone] | 2800 ± 1100 nM | – | – | –
2 | O=S(=O)(O)c1cccc2cccc(Nc3ccccc3)c12 | – | – | – | Kd (human L-FABP [2]): 6000 ± 2600 nM
3 | CCCCCCCC/C=C\CCCCCCCC(=O)O [Oleate] | – | 210 ± 80 nM | 1100 ± 260 nM | Ki [7]: 600 ± 15 nM
4 | CC(C)(Oc1ccc(C(=O)c2ccc(Cl)cc2)cc1)C(=O)O [Fenofibric acid] | 1000 ± 200 nM | 10000 ± 3000 nM | 49000 ± 4000 nM | –
5 | CCCc1c(OCCCOc2ccc(OCC(=O)O)cc2)ccc(C(C)=O)c1O [L-165,041] | 1400 ± 600 nM | 4200 ± 400 nM | 800 ± 300 nM | Ki [7, 9]: 12000 ± 2100 nM; Ki (human L-FABP [3]): 2300 nM; displacement of cis-parinaric acid fluorescence from L-FABP (human L-FABP [3]): could not completely displace the cis-parinaric acid fluorescence; protection of L-FABP from limited proteolysis (human L-FABP [5]): protects L-FABP from limited proteolysis
6 | Cc1c(C)c2c(c(C)c1O)CCC(C)(COc1ccc(CC3SC(=O)NC3=O)cc1)O2 (centres unmarked) [Troglitazone] | 1700 ± 500 nM | – | – | –

Further lines, with some results ahead:

Row | Ki (human L-FABP [1]) | Ki [6] | Ki [8] | SMILES | further results
7 | 320 ± 130 nM | – | – | CC(C)(Sc1ccc(CCN(CCCCC2CCCCC2)C(=O)NC2CCCCC2)cc1)C(=O)O [GW7647] | protection of PPARαLBD from limited proteolysis (PPARαLBD): afforded protection to the PPARαLBD against proteolysis; Ki (human L-FABP [3]): 550 nM; displacement of cis-parinaric acid fluorescence from L-FABP (human L-FABP [3]): could not completely displace the cis-parinaric acid fluorescence; thermal transition mid-point temperature (Tm) of L-FABP in complex with drug (human L-FABP [4]): 86.7 °C; protection of L-FABP from limited proteolysis (human L-FABP [5]): afforded more resistance to proteolysis
8 | 20000 ± 3800 nM | – | 23000 ± 4000 nM | Cc1nc(-c2ccc(C(F)(F)F)cc2)sc1C(=O)NCc1ccc(OC(C)(C)C(=O)O)cc1 [GW590735] | Ki [7, 9]: 4400 ± 2300 nM
9 | 1600 ± 700 nM | – | – | CN(CCOc1ccc(C[C@H](Nc2ccccc2C(=O)c2ccccc2)C(=O)O)cc1)c1ccccn1 [GW1929] | –
